Like-named read-outs stand apart in the source and are kept apart here.
Tests used:
[1] = system: patients with Wilson disease (WD); type: in vivo
Source text: Adverse events were reported by the patient (or, when appropriate, by a caregiver, surrogate, or the patient's legally authorized representative). The Investigator and any qualified designees were responsible for detecting, documenting, and recording events that meet the definition of an AE or SAE and remain responsible for following up AEs that were serious, considered related to the study intervention or study procedures, or that caused the patient to discontinue the study.
The safety analysis was performed on the Safety Analysis Set. This dataset includes all patients who received at least 1 dose of randomized treatment. Patients were summarized according to the treatment actually received.
Acute worsening of neurologic symptoms typically within 6 months of start of therapy is a known complication associated with chelation therapy for WD. […] Neurologic AESI for Study 301 were considered as all AEs in the Medical Dictionary for Regulatory Activities (MedDRA) System Organ Class (SOC) “Nervous system disorders” or any other AE judged by the Investigator as an AESI.

participants with WD = conditions: for Daily Net Copper Balance, Change from Baseline, Mean: Table 10; for Decrease from Baseline in Average Daily Net Copper Balance, Mean (SD): Table 13
Protocol: Study 204 is registered with ClinicalTrials.gov, number NCT04573309, and is described in Example 1 of U.S. Provisional Patent Application No. 63/237,120, filed Aug. 25, 2021, and incorporated by reference herein. […] The participants remained on a Cu-controlled diet, and Cu and Mo balance were measured on all intake (i.e., investigational agent, food and fluids) and all output (urine and feces). The Cu and Mo concentration of each sample was determined by inductively coupled plasma mass spectrometry (ICP-MS). Copper and Mo content of all intake and output was calculated based on the volume or weight of intake and output and the concentration of representative samples.
Collection periods for feces and urine varied in duration from 3 to 15 days to support assessment of both Cu and Mo balance before and at steady state for both 15 mg and 30 mg. Equilibration periods on Cu/Mo-controlled diets were a minimum of 48 hours. Copper balance was calculated as the mean daily Cu balance over each of the 4 collection periods. The interpretation of Cu balance was based on the criteria previously established when undertaking Cu balance studies with zinc treatment.
These participants had all intake (food and drink) and output (urine and feces) collected from Day −4 through Day −1 (baseline), from Day 1 through Day 8, and Day 25 through Day 39.

[2] = Primary Evaluation Period, 48 Weeks
[3] = Days 1-8 (Accumulation 15 mg/day)
[4] = Days 25-28 (Steady State 15 mg/day)
[5] = Days 31-35 (Accumulation 30 mg/day)
[6] = Days 36-39 (Steady State 30 mg/day)

## bis-choline tetrathiomolybdate [TTM]
[1]; Primary Evaluation Period
  AEs in SOC Ear and labyrinth disorders: 5.1%
  AEs in SOC Hepatobiliary disorders: 6.6%
  AEs in SOC Investigations: 33.6%
  AEs in SOC Psychiatric disorders: 19.0%
  AEs in SOC Skin and subcutaneous tissue disorders: 21.9%
  incidence of SAEs, Nervous system disorders: 4.4%
  incidence of headache: 8.0%
  incidence of tremor: 7.3%
  participants with highest severity Grade 1 AEs, Nervous system disorders: 24.1%
  participants with highest severity Grade 2 AEs, Nervous system disorders: 13.9%
[1]; [2]
  Alanine aminotransferase increased AE, % participants: 14.6%
  Alanine aminotransferase increased AE, N participants: 20
  Aspartate aminotransferase increased AE, % participants: 2.9%
  Aspartate aminotransferase increased AE, N participants: 4
  Ear and labyrinth disorders (SOC) AE, % participants: 5.1%
  Ear and labyrinth disorders (SOC) AE, N participants: 7
  Fatigue AE, % participants: 9.5%
  Fatigue AE, N participants: 13
  Gamma-glutamyltransferase increased AE, % participants: 2.2%
  Gamma-glutamyltransferase increased AE, N participants: 3
  Hepatic enzyme increased AE, % participants: 2.2%
  Hepatic enzyme increased AE, N participants: 3
  Hepatobiliary disorders (SOC) AE, % participants: 6.6%
  Hepatobiliary disorders (SOC) AE, N participants: 9
  Investigations (SOC) AE, % participants: 33.6%
  Investigations (SOC) AE, N participants: 46
  Nervous system disorders (SOC) AE, % participants: 34.3%
  Nervous system disorders (SOC) AE, N participants: 47
  Neutrophil count decreased AE, % participants: 1.5%
  Neutrophil count decreased AE, N participants: 2
  Pruritus AE, % participants: 3.6%
  Pruritus AE, N participants: 5
  Psychiatric disorders (SOC) AE, % participants: 19.0%
  Psychiatric disorders (SOC) AE, N participants: 26
  Pyrexia AE, % participants: 5.8%
  Pyrexia AE, N participants: 8
  Rash AE, % participants: 6.6%
  Rash AE, N participants: 9
  Skin and subcutaneous tissue disorders (SOC) AE, % participants: 21.9%
  Skin and subcutaneous tissue disorders (SOC) AE, N participants: 30
  incidence of AEs in SOC Nervous system disorders: 34.3%
[1]; cohort 1 incomplete response or intolerant
  patients with neurologic AEs: 31.8%
[1]; seven events in 5 participants
  participants with neurologic AESI in SOC Psychiatric disorders: 3.6%
Participants with WD; [3]
  Daily Net Copper Balance, Change from Baseline, Median: -0.4291 mg
  Daily Net Copper Balance, Value, Median: 0.6678 mg
  Increase from Baseline in Average Daily Fecal Copper Excretion, Mean: 0.3278 mg
  Increase from Baseline in Average Daily Urine Copper Excretion, Mean: -0.0108 mg
  Daily Net Copper Balance, Change from Baseline, Mean: -0.4848 mg
  Decrease from Baseline in Average Daily Net Copper Balance, Mean (SD): −0.4848(0.119) mg
Participants with WD; Days 1-8 (Accumulation 15 mg/day), N=3
  Daily Net Copper Balance, Value, Mean: 0.7654 mg
Participants with WD; Days 1-39
  Decrease from Baseline in Average Daily Net Copper Balance, Mean (SD): −0.448 (0.1469) mg
Participants with WD; [4]
  Daily Net Copper Balance, Change from Baseline, Median: -0.1459 mg
  Daily Net Copper Balance, Value, Mean: 0.7638 mg
  Daily Net Copper Balance, Value, Median: 1.1434 mg
  Increase from Baseline in Average Daily Fecal Copper Excretion, Mean: 0.4931 mg
  Increase from Baseline in Average Daily Urine Copper Excretion, Mean: 0.1042 mg
  Daily Net Copper Balance, Change from Baseline, Mean: -0.4865 mg
  Decrease from Baseline in Average Daily Net Copper Balance, Mean (SD): −0.6381 (0.7673) mg
Participants with WD; [5]
  Daily Net Copper Balance, Change from Baseline, Median: -0.3707 mg
  Daily Net Copper Balance, Value, Mean: 0.8577 mg
  Daily Net Copper Balance, Value, Median: 0.8312 mg
  Increase from Baseline in Average Daily Fecal Copper Excretion, Mean: 0.3879 mg
  Increase from Baseline in Average Daily Urine Copper Excretion, Mean: 0.0744 mg
  Daily Net Copper Balance, Change from Baseline, Mean: -0.3925 mg
  Decrease from Baseline in Average Daily Net Copper Balance, Mean (SD): −0.3925 (0.05781) mg
Participants with WD; [6]
  Daily Net Copper Balance, Change from Baseline, Median: -0.4225 mg
  Daily Net Copper Balance, Value, Mean: 0.8582 mg
  Daily Net Copper Balance, Value, Median: 0.7986 mg
  Increase from Baseline in Average Daily Fecal Copper Excretion, Mean: 0.0899 mg
  Increase from Baseline in Average Daily Urine Copper Excretion, Mean: 0.1042 mg
  Daily Net Copper Balance, Change from Baseline, Mean: -0.3921 mg
  Decrease from Baseline in Average Daily Net Copper Balance, Mean (SD): −0.2765 (0.3138) mg

Reference: patent US20260216238A1, “TETRATHIOMOLYBDIC ACID FOR USE IN TREATING COPPER METABOLISM-ASSOCIATED DISEASES OR DISORDERS (WILSON DISEASE)” (Alexion Pharmaceuticals, Inc., priority 2023, published 2026)
